Data on 3 compounds can be found in ChEMBL document CHEMBL1255560, “2-, 3-, and 4-(1-Oxo-1H-2,3-dihydroisoindol-2-yl)benzoic acids and their corresponding organotin carboxylates: synthesis, characterization, fluorescent, and biological activities” (2010).

Structures are written as SMILES. In brackets after ≈: the same amount, converted by molar mass.

Common to all, as to assay type: functional
The test system of one assay is Escherichia coli. Description: Antibacterial activity against Escherichia coli by double dilution technique.
The subject of a further assay is Staphylococcus aureus. Description: Antibacterial activity against Staphylococcus aureus by double dilution technique.
A further assay relates to Candida albicans. Kind of assay: Antifungal activity against Candida albicans by double dilution technique.
A further assay concerns Pseudomonas aeruginosa. Kind of assay: Antibacterial activity against Pseudomonas aeruginosa by double dilution technique.

The term MIC denotes the lowest concentration found to suppress growth. Consider `O=C(O)c1cccc(N2Cc3ccccc3C2=O)c1`, for which the minimal inhibitory concentration (MIC) in the assay on Escherichia coli amounted to 0.625 µg/mL (≈ 2.47 µM); in the assay on Staphylococcus aureus, 1.25 µg/mL (≈ 4.94 µM); in the assay on Candida albicans it was 0.625 µg/mL (≈ 2.47 µM); against Pseudomonas aeruginosa it was 0.625 µg/mL (≈ 2.47 µM).
On to `O=C(O)c1ccccc1N1Cc2ccccc2C1=O`, for which the MIC against Escherichia coli is 2.5 µg/mL (≈ 9.87 µM); against Staphylococcus aureus, 2.5 µg/mL (≈ 9.87 µM); in the assay with Candida albicans, 1.25 µg/mL (≈ 4.94 µM); against Pseudomonas aeruginosa, 1.25 µg/mL (≈ 4.94 µM).
On to `O=C(O)c1ccc(N2Cc3ccccc3C2=O)cc1`, for which the MIC with Escherichia coli is 1.25 µg/mL (≈ 4.94 µM); with Staphylococcus aureus it was 1.25 µg/mL (≈ 4.94 µM); against Candida albicans it was 1.25 µg/mL (≈ 4.94 µM); against Pseudomonas aeruginosa, 0.625 µg/mL (≈ 2.47 µM).
